# Measurements published in patent US11401264B2, “Heterocyclic compound” (Orizuru Therapeutics, Inc., priority 2018, dated 2022).
# Columns and labels:
# [1] = system: cardiomyocytes from double knock-in human iPS cell lines (mCherry at TNNI3 locus); test: Experimental Example 1: mCherry (TNNI3 reporter) immunostaining measured by high contents screening; format: cell-based; parameters: key to average fluorescent intensity (at 30 μM): —: The symbol in Table 2 means that the average fluorescent intensity cannot be evaluated due to cell decrease; details: read on 8th day, Alexa 647 anti-mCherry, control well 797; for average fluorescent intensity (at 1 μM): test compound 1 μM added on 3rd and 6th culture days; for average fluorescent intensity (at 30 μM): test compound 30 μM added on 3rd and 6th culture days
# Outline: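 Double knock-in iPS lines (EmGFP at TNNI1, mCherry at TNNI3) differentiated as embryoid bodies in stirred bioreactor at 37 °C, 5% O2: BMP4/activin A/bFGF, then VEGF, IWP-3, dorsomorphin, SB431542, then VEGF alone. On day 14, dissociated cells seeded at 1.0×10^4 cells/well on iMatrix-511 in AK02-based cardiomyocyte medium.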
# [2] = system: cardiomyocytes (embryoid bodies) from double knock-in human iPS cell lines (mCherry at TNNI3 locus); test: Experimental Example 2: mCherry expression in TNNI1+ cells by flow cytometry; format: cell-based; details: 3 μM, 8th-16th day, DMSO control 7.8
# Method: For detection of cardiomyocyte maturation, double knock-in human iPS cell lines, in which reporter protein sequences, EmGFP (Sequence Number 1) and mCherry (Sequence Number 2) were inserted into gene loci for TNNI1 and TNNI3, respectively, were prepared (the human iPS cells were prepared from episomal vector (loaded gene; OCT3/4, KLF4, SOX2, L-MYC, LIN28, mouse p53DD) using PBMC (LP_167, Sample ID: 20130318) purchased from CTL (reference literature; Okita K, et al. Stem Cells. 2012 Nov. 29. doi: 10.1002/stem.1293)).
# The maintenance culture of the above-mentioned reporter iPS cell lines was carried out by a conventional method (Okita K, et al. Stem Cells. 2012 Nov. 29. doi: 10.1002/stem.1293).
# For differentiation induction into cardiomyocytes, the reporter iPS cell lines were treated with 0.5×TrypLE select (Life Technologies, diluted in 1/2 with 0.5 mM EDTA/PBS) for 4 to 5 minutes, and the cells were exfoliated using a cell scraper (IWAKI), and then dissociated into the single cell by pipetting. The medium was removed by centrifugation (1,000 rpm, 5 min), and the obtained cells were suspended in a medium prepared by adding 1% L-glutamine, transferrin 150 μg/mL, ascorbic acid 50 μg/mL (Sigma), monothioglycerol […], 10 μM Rock inhibitor (Y-27632), 2 ng/mL BMP4 (R&D) and 0.5% Matrigel (Growth Factor Reduced) to StemPro-34 SFM (ThermoFisher) in a 6 well-plate by 2×10^6 cells/1.5 mL/well, and then subjected to static culture at 37° C., under 5% oxygen condition to form embryoid bodies (0 day).
# Next day (1st day), a medium prepared by adding 1% L-glutamine, transferrin 150 μg/mL, ascorbic acid 50 μg/mL (Sigma), monothioglycerol 4><10^−4 M, 1.8 μL (concentration 12 ng/mL) of 10 μg/mL activin A, […] (concentration 10 ng/mL) of 10 μg/mL bFGF and 2.7 μL (concentration 18 ng/mL) of 10 μg/mL BMP4 to 1.5 mL of StemPro-34 SFM (ThermoFisher) was added to each well of the 6 well plate containing the embryoid bodies to adjust the volume combined with the 0 day's medium to final 3 mL (activin A: 6 ng/ml, bFGF: 5 ng/ml, BMP4: 10 ng/ml), and the embryoid bodies were cultured at 37° C. for additional 2 days, under 5% oxygen condition.
# Then (3rd day), the 6 well plate containing the embryoid bodies was inclined, and then left to stand for 1 to 2 minutes until the embryoid bodies were precipitated at the edges of the wells, and the supernatant was aspirated so as not to suck the embryoid bodies. Then, IMDM (ThermoFisher) medium was added to each well, and, as above, the plate was inclined, and then left to stand for 1 to 2 minutes, and the supernatant was aspirated so as not to suck the embryoid bodies. A medium prepared by adding 1% L-glutamine, transferrin 150 μg/mL, ascorbic acid 50 μg/mL (Sigma), monothioglycerol 4×10^−4 M, 10 ng/mL VEGF, 1 μM IWP-3, 0.6 μM dorsomorphin and 5.4 μM SB431542 to 3 mL of StemPro-34 SFM (ThermoFisher) was added to each well of the 6 well plate, and then the embryoid bodies were cultured at 37° C. for 3 days, under 5% oxygen condition.
# Then (6th day), the 6 well plate containing the embryoid bodies was inclined, and then left to stand for 1 to 2 minutes until the embryoid bodies were precipitated at the edges of the wells, and the supernatant was aspirated so as not to suck the embryoid bodies. […]
Compound,average fluorescent intensity (at 1 μM) [1],average fluorescent intensity (at 30 μM) [1],mCherry+ (%) [2]
"O=C1c2ccc(N3CCCCC3)cc2CN1c1ccc2[nH]c(-c3ccc(O)cc3)nc2c1 [Example 4, 2-(2-(4-hydroxyphenyl)-1H-benzimidazol-5-yl)-5-(piperidin-1-yl)isoindolin-1-one]",1621,894,58.1%
"O=C(COc1ccc(-c2nc3cc(N4Cc5cc(N6CCCCC6)ccc5C4=O)ccc3[nH]2)cc1)Nc1ccc2c(c1)CCS2(=O)=O [Example 17, N-(1,1-dioxido-2,3-dihydro-1-benzothiophen-5-yl)-2-(4-(5-(1-oxo-5-(piperidin-1-yl)-1,3-dihydro-2H-isoindol-2-yl)-1H-benzimidazol-2-yl)phenoxy)acetamide]",1544,1079,42.1%
"O=C1c2ccc(N3CCCCC3)cc2CN1c1ccc2[nH]c(-c3ccncc3)nc2c1 [Example 45, 5-(piperidin-1-yl)-2-(2-(pyridin-4-yl)-1H-benzimidazol-5-yl)isoindolin-1-one]",1130,814,66.6%
"O=C1c2ccc(N3CCCCC3)cc2CN1c1ccc2[nH]c(-c3cccnc3)nc2c1 [Example 46, 5-(piperidin-1-yl)-2-(2-(pyridin-3-yl)-1H-benzimidazol-5-yl)isoindolin-1-one]",1142,1616,47.2%
"COCc1ccc(-c2nc3cc(N4Cc5cc(N6CCOCC6)ccc5C4=O)ccc3[nH]2)cc1 [Example 66, 2-(2-(4-(methoxymethyl)phenyl)-1H-benzimidazol-5-yl)-5-(morpholin-4-yl)isoindolin-1-one]",1338,1358,
"O=C1c2ccc(N3CCOCC3)cc2CN1c1ccc2[nH]c(-c3ccc(F)cc3)nc2c1 [Example 67, 2-(2-(4-fluorophenyl)-1H-benzimidazol-5-yl)-5-(morpholin-4-yl)isoindolin-1-one]",1367,1188,
"COc1ccc(-c2nc3cc(N4Cc5cc(N6CCCCC6)ccc5C4=O)ccc3[nH]2)cc1 [Example 68, 2-(2-(4-methoxyphenyl)-1H-benzimidazol-5-yl)-5-(piperidin-1-yl)isoindolin-1-one]",1301,,
"COc1ccc(-c2nc3cc(N4Cc5cc(N6CCOCC6)ccc5C4=O)ccc3[nH]2)cc1 [Example 69, 2-(2-(4-methoxyphenyl)-1H-benzimidazol-5-yl)-5-(morpholin-4-yl)isoindolin-1-one]",1222,1942,
"COc1ccc(-c2nc3cc(N4Cc5cc(Br)ccc5C4=O)ccc3[nH]2)cc1 [Example 70, 5-bromo-2-(2-(4-methoxyphenyl)-1H-benzimidazol-5-yl)isoindolin-1-one]",998,4335,
"CCN(CC)c1ccc2c(c1)CN(c1ccc3[nH]c(-c4ccc(OC)cc4)nc3c1)C2=O [Example 71, 5-(diethylamino)-2-(2-(4-methoxyphenyl)-1H-benzimidazol-5-yl)isoindolin-1-one]",923,—,
"CCOc1ccc(-c2nc3cc(N4Cc5cc(N6CCOCC6)ccc5C4=O)ccc3[nH]2)cc1 [Example 72, 2-(2-(4-ethoxyphenyl)-1H-benzimidazol-5-yl)-5-(morpholin-4-yl)isoindolin-1-one]",1370,948,
"O=C1c2ccc(N3CCOCC3)cc2CN1c1ccc2[nH]c(-c3ccccc3)nc2c1 [Example 73, 5-(morpholin-4-yl)-2-(2-phenyl-1H-benzimidazol-5-yl)isoindolin-1-one]",1231,922,
